{
  "source": "patent US20110150917A1",
  "about": "“Small Cationic Antimicrobial Peptides” (THE UNIVERSITY OF BRITISH COLUMBIA, priority 2007, published 2011)",
  "key": {"[1]": {"conditions": "mouse model; cited from earlier work"}, "bacterial infections": {"test_system": "bacterial infections", "conditions": "mouse, in vivo; cited from earlier work"}, "monocytic cells": {"test_system": "monocytic cells", "conditions": "cited from earlier work"}, "[2]": {"test_system": "human peripheral blood mononuclear cells (PBMC)", "experiment": "Chemokine induction in human PBMC (capture ELISA)", "type": "cell-based", "conditions": "for ability to stimulate human PBMC to induce the expression of the chemokines MCP-1, Gro-α and IL8: ELISA 24 hours after peptide addition, compared to LL-37, lowest peptide concentration 5 μg/ml", "method": "(§1) Venous blood (20 ml) from healthy volunteers was collected in Vacutainer® collection tubes containing sodium heparin as an anticoagulant (Becton Dickinson, Mississauga, ON) in accordance with UBC ethical approval and guidelines. Blood was diluted 1:1 with complete RPMI 1640 medium and separated by centrifugation over a Ficoll-Paque® Plus (Amersham Biosciences, Piscataway, N.J., USA) density gradient. White blood cells were isolated from the buffy coat, washed twice in RPMI 1640 complete medium, and the number of peripheral blood mononuclear cells (PBMC) was determined by trypan blue exclusion. PBMC (5×10^5) were seeded into 12-well tissue culture dishes (Falcon; Becton Dickinson) at 0.75 to 1×10^6 cells/ml at 37° C. in 5% CO2. The above conditions were chosen to mimic conditions for circulating blood monocytes entering tissues at the site of infection via extravasation.\n(§2) Following incubation of the cells under various treatment regimens, the tissue culture supernatants were centrifuged at 1000×g for 5 min, then at 10,000×g for 2 min to obtain cell-free samples. Supernatants were aliquoted and then stored at −20° C. prior to assay for various chemokines by capture ELISA (eBioscience and BioSource International Inc., CA, USA respectively)."}, "human PBMC": {"test_system": "human PBMC", "experiment": "Chemokine responses of human PBMC to CpG oligonucleotides with co-administered lantibiotic peptides", "type": "cell-based", "conditions": "for synergy with known adjuvants like CpG: FIG. 3, FIG. 8", "method": "FIG. 3A-C. Reinforcement of chemokine responses in human PBMC to the bacterial signature molecules, Cpg oligonucleotides, by co-administration of lantibiotic peptides. On the X-axis of this and subsequent Figures, N=Nisin Z, P=Pep5, G=gallidermin.\nas §1, §2"}, "macrophages": {"test_system": "macrophages", "conditions": "previously shown in applicant's laboratory; cited from earlier work"}, "S. aureus": {"test_system": "S. aureus", "experiment": "Protection of mice vs. Staphylococcus aureus challenge (peritoneal)", "type": "in vivo", "method": "FIG. 9. Protection of animals vs. Staphylococcus aureus challenge when administered 4 hours prior to initiating the infection. A represents the reduction in colony counts within the peritoneum of mice treated with lantibiotic peptide (or negative control 1005 or positive control 1002) and challenged with ˜10^8 S. aureus in hog gastric mucin. […] An additional peptide 1002 was included as a positive control.\nConventional peptides are known to protect against infection (Scott et al. Nature Biotech 2007). However such peptides are very expensive whereas lantibiotics are bacterial fermentation products and thus inexpensive. Thus we assessed the reduction in colony counts after 24 hours within the peritoneum of mice treated with the lantibiotic peptide nisin (or negative control 1005 or positive control 1002) and challenged these mice 4 hours later with ˜10^8 S. aureus in hog gastric mucin. […] Thus the in vitro activities of nisin in increasing MCP-1 production in PBMC is clearly related to in vivo protection in animal models."}, "Citrobacter rodentium": {"test_system": "Citrobacter rodentium", "experiment": "Citrobacter rodentium challenge in mice (live imaging, intestinal histology)", "type": "in vivo", "method": "FIG. 10. Live-time Non-invasive imaging following Citrobacter rodentium challenge; effect of nisin treatment. Animals were pre-treated intraperitoneally with 200 μg nisin, 4 h prior to initiating the infection. Mice were then infected via gavage with 2.5×10^8 CFU of Citrobacter rodentium (lux—luminescence labeled). Live mice were followed with a CCD camera over time to assess bacterial clearance/resolution of infection.\nFIG. 11. Histology of the intestines of Citrobacter treated animals after sacrifice at day 11; effect of nisin treatment. A. Sections of (from right to left): normal uninfected, saline treated infected, and nisin-treated intestines. Letter labels are a. Inflammatory infiltrate and edema; b. elongated crypts (hyperplasia); c. sloughing of damaged epithelial cells (mucosal integrity); d. depletion of mucous in goblet cells. B. Scoring of these micrographs."}, "[3]": {"conditions": "intestines, sacrifice at day 11, p<0.05, FIG. 11"}},
  "note": "“Also recorded” adds a separate entry of the source. Where no end group is shown, it is not given here.",
  "data": [
    {"substance": "LL-37: natural human host defence peptide (LLGDFFRKSKEKIGKEFKRIVQRIKDFLRNLVPRTES; Antibacterial peptide LL-37; UniProt P49913 134-170, looked up)", "values": [
      {"measurement": "endotoxin mediated TNFα induction and lethality", "setting": "[1]", "result": "reduce endotoxin mediated TNFα induction and lethality"},
      {"measurement": "protection against bacterial infections", "setting": "bacterial infections", "result": "able to protect against bacterial infections"},
      {"measurement": "anti-endotoxic activity in vitro (suppression of LPS-mediated induction of TNFα)", "setting": "monocytic cells", "result": "excellent anti-endotoxic activity"}
    ]},
    {"substance": "Nisin A: lantibiotic, a variant of Nisin Z (ITSISLCTPGCKTGALMGCNMKTATCHCSIHVSK; thioether (positions not given here); also: lantibiotic; UniProt P13068 24-57, looked up)", "values": [
      {"measurement": "ability to induce MCP-1", "setting": "[2]; 24 hours, 100 μg of peptide, ELISA, FIG. 7", "result": "excellent activity"}
    ]},
    {"substance": "Nisin Z: cationic lantibiotic bacteriocin purified from L. lactis NIZO 22186 fermentation broth (ITSISLCTPGCKTGALMGCNMKTATCNCSIHVSK; thioether (positions not given here); also: lantibiotic; UniProt P29559 24-57, looked up)", "values": [
      {"measurement": "ability to stimulate human PBMC to induce the expression of the chemokines MCP-1, Gro-α and IL8", "setting": "[2]; FIG. 2A-C", "result": "most effective; also recorded: ability to induce chemokines"},
      {"measurement": "dose response of chemokine induction", "setting": "[2]; between 30 and 150 μg/ml, FIG. 2A-C", "result": "good dose response"},
      {"measurement": "synergy with known adjuvants like CpG", "setting": "human PBMC", "result": "show synergy"},
      {"measurement": "MCP-3 release above the additive effect of CpG alone and lantibiotic alone", "setting": "human PBMC; p<0.05", "result": "statistically significantly (p<0.05) increased"},
      {"measurement": "inducing MCP-1 and IL6, compared with CpG", "setting": "human PBMC; vs three classes of CpG", "result": "superior to any of the three classes of CpG"}
    ]},
    {"substance": "Pep5: cationic lantibiotic purified from producer strain S. epidermidis 25 (TAGPAIRASVKQCQKTLKATRLFTVSCKGKNGCK; thioether (positions not given here); also: lantibiotic; UniProt P19578 27-60, looked up)", "values": [
      {"measurement": "ability to stimulate human PBMC to induce the expression of the chemokines MCP-1, Gro-α and IL8", "setting": "[2]; FIG. 2A-C", "result": "ability to induce chemokines"},
      {"measurement": "synergy with known adjuvants like CpG", "setting": "human PBMC", "result": "show synergy"}
    ]},
    {"substance": "gallidermin: cationic lantibiotic purified from Staphylococcus gallinarum Tü 3928 (IASKFLCTPGCAKTGSFNSYCC; thioether (positions not given here); also: lantibiotic; UniProt P21838 31-52, looked up)", "values": [
      {"measurement": "ability to stimulate human PBMC to induce the expression of the chemokines MCP-1, Gro-α and IL8", "setting": "[2]; FIG. 2A-C", "result": "quite effective; also recorded: ability to induce chemokines"},
      {"measurement": "synergy with known adjuvants like CpG", "setting": "human PBMC", "result": "show synergy"}
    ]},
    {"substance": "indolicidin: 13-mer peptide (ILPWKWPWWPWRR; ends and bridges not checked; UniProt P33046 131-143, looked up)", "values": [
      {"measurement": "anti-endotoxic activity (suppression of LPS-stimulated TNFα by macrophages)", "setting": "macrophages", "result": "rather modest anti-endotoxic activity"}
    ]},
    {"substance": "nisin", "values": [
      {"measurement": "colony counts within the peritoneum", "setting": "S. aureus; after 24 hours, peptide 4 hours before ~10^8 S. aureus in hog gastric mucin, FIG. 9A", "result": "reducing average colony counts"},
      {"measurement": "visual observation scores (physiological consequences)", "setting": "S. aureus; cf. control peptides 1002 and 1005, FIG. 9B", "result": "vastly improved"},
      {"measurement": "synergy in inducing MCP-1 over and above the individual components", "setting": "human PBMC; adjuvant formulations, ratios 2:1, 1:1 and 1:2 nisin to CpG, FIG. 8", "result": "demonstrated synergy"},
      {"measurement": "infection in the gut / bacterial clearance", "setting": "Citrobacter rodentium; 200 μg nisin intraperitoneally 4 h before gavage with 2.5×10^8 CFU, CCD imaging, FIG. 10", "result": "substantial decrease in infection in the gut; also recorded: superior clearance"},
      {"measurement": "duration of the decrease in infection / superior clearance", "setting": "Citrobacter rodentium; after injection of nisin, FIG. 10", "result": "up to 11 days"},
      {"measurement": "damage to epithelial integrity (histology score)", "setting": "Citrobacter rodentium; [3]", "result": "decrease"},
      {"measurement": "goblet cell depletion (histology score)", "setting": "Citrobacter rodentium; [3]", "result": "decrease"},
      {"measurement": "inflammatory exudate and edema (histology score)", "setting": "Citrobacter rodentium; [3]", "result": "significant (p<0.05) increase"}
    ]}
  ]
}
